Reference: US9803002B2, “Anti-wall teichoic antibodies and conjugates” (Genentech, Inc., priority 2013, dated 2017)

Test system: Wood46 strain of S. aureus
Assay: Macrophage intracellular killing assay with opsonized, washed bacteria
Type: cell-based, Staphylococcus aureus
Conditions: 10 μg/mL or 0.5 μg/mL
Description: The Wood46 strain of S. aureus was incubated with 10 μg/mL or 0.5 μg/mL of S4497 antibody, Isotype control-AAC containing a cathepsin B cleavable linker, thio-trastuzumab HC A118C-MC-vc-PAB-(dimethyl-pipBOR) AAC-101, thio-S4497 HC WT (v8), LC V205C-MC-vc-PAB-(dimethylpipBOR) AAC-192, Isotype control-AAC containing a staphopain cleavable linker, thio-trastuzumab HC […]-MP-LAFG-PABC-(piperazinoBOR) (“core peptide” disclosed as SEQ ID NO: 128) or thio-S4497 HC v1-MP-LAFG-PABC-(piperazinoBOR) (“core peptide” disclosed as SEQ ID NO: 128) AAC-193 for 1 hour to permit binding of the AAC to bacteria (FIG. 32). To limit non-specific binding of the AAC, the opsonized bacteria were centrifuged, washed once and resuspended in buffer before being fed to murine macrophages. […] Antibody-antibiotic conjugate, thio-54497 LC v8-MP-LAFG-PABC-(piperazinoBOR) (“core peptide” disclosed as SEQ ID NO: 128)AAC-215 is efficacious in vivo in a MRSA infection model: […]

In the case of “thio-trastuzumab HC A1118C-MP-LAFG-PABC-(piperazinoBOR)”, the “killing of intracellular bacteria” value is reported as “no activity”.
